{"source": "the supplement of paper PMC10307832", "assay_in_all_cases": "relative viability (nuclei count vs DMSO), 5 days (fraction); higher = more cells survive", "key": {"[1]": {"system": "201T", "outline": "(§1)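 Cells from lung cancer lines were seeded into 1536-well plates and, one day later, dosed by pin tool. Treatments were either a single drug or a fixed dose of an anchor drug with five library-drug doses (not always all listed) in √10 steps. After 5 days, nuclei were stained in a one-step fixation (final 0.05% Triton X-100, 1% formaldehyde, 1 ug/ml Hoechst) and counted on 4× images, and relative viability is the treated-to-vehicle nuclei ratio, as the median of duplicate plates.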"}, "[2]": {"system": "A-427", "outline": "as §1"}, "[3]": {"system": "ABC-1", "outline": "as §1"}, "[4]": {"system": "BEN", "outline": "as §1"}, "[5]": {"system": "CAL-12T", "outline": "as §1"}, "[6]": {"system": "H3255", "outline": "as §1"}, "[7]": {"system": "LC-2-ad", "outline": "as §1"}, "[8]": {"system": "LCLC-97TM1", "outline": "as §1"}, "[9]": {"system": "NCI-H1650", "outline": "as §1"}, "[10]": {"system": "NCI-H1651", "outline": "as §1"}, "[11]": {"system": "NCI-H1915", "outline": "as §1"}}}
{"compound": "Nc1ccn([C@@H]2O[C@H](CO)[C@@H](O)[C@@H]2O)c(=O)n1", "note": "[Cytarabine] + C[C@@H](Oc1cc(-c2cnn(C3CCNCC3)c2)cnc1N)c1c(Cl)ccc(F)c1Cl [Crizotinib] (partner 1 µM)", "values": [{"measurement": "relative viability", "setting": "[1]; first compound 0.005 µM", "value": 1.04}, {"measurement": "relative viability", "setting": "[1]; first compound 0.01581 µM", "value": 0.999}, {"measurement": "relative viability", "setting": "[1]; first compound 0.05 µM", "value": 1.01}, {"measurement": "relative viability", "setting": "[1]; first compound 0.1581 µM", "value": 0.97}, {"measurement": "relative viability", "setting": "[1]; first compound 0.5 µM", "value": 1}, {"measurement": "relative viability", "setting": "[2]; first compound 0.005 µM", "value": 0.605}, {"measurement": "relative viability", "setting": "[2]; first compound 0.01581 µM", "value": 0.414}, {"measurement": "relative viability", "setting": "[2]; first compound 0.05 µM", "value": 0.149}, {"measurement": "relative viability", "setting": "[2]; first compound 0.1581 µM", "value": 0.172}, {"measurement": "relative viability", "setting": "[2]; first compound 0.5 µM", "value": 0.173}, {"measurement": "relative viability", "setting": "[3]; first compound 0.005 µM", "value": 0.871}, {"measurement": "relative viability", "setting": "[3]; first compound 0.01581 µM", "value": 0.821}, {"measurement": "relative viability", "setting": "[3]; first compound 0.05 µM", "value": 0.925}, {"measurement": "relative viability", "setting": "[3]; first compound 0.1581 µM", "value": 0.717}, {"measurement": "relative viability", "setting": "[3]; first compound 0.5 µM", "value": 0.462}, {"measurement": "relative viability", "setting": "[4]; first compound 0.005 µM", "value": 0.605}, {"measurement": "relative viability", "setting": "[4]; first compound 0.01581 µM", "value": 0.66}, {"measurement": "relative viability", "setting": "[4]; first compound 0.05 µM", "value": 0.449}, {"measurement": "relative viability", "setting": "[4]; first compound 0.1581 µM", "value": 0.311}, {"measurement": "relative viability", "setting": "[4]; first compound 0.5 µM", "value": 0.292}, {"measurement": "relative viability", "setting": "[5]; first compound 0.005 µM", "value": 0.413}, {"measurement": "relative viability", "setting": "[5]; first compound 0.01581 µM", "value": 0.753}, {"measurement": "relative viability", "setting": "[5]; first compound 0.05 µM", "value": 0.703}, {"measurement": "relative viability", "setting": "[5]; first compound 0.1581 µM", "value": 0.511}, {"measurement": "relative viability", "setting": "[5]; first compound 0.5 µM", "value": 0.153}, {"measurement": "relative viability", "setting": "[6]; first compound 0.005 µM", "value": 0.76}, {"measurement": "relative viability", "setting": "[6]; first compound 0.01581 µM", "value": 0.828}, {"measurement": "relative viability", "setting": "[6]; first compound 0.05 µM", "value": 0.776}, {"measurement": "relative viability", "setting": "[6]; first compound 0.1581 µM", "value": 0.724}, {"measurement": "relative viability", "setting": "[6]; first compound 0.5 µM", "value": 0.667}, {"measurement": "relative viability", "setting": "[7]; first compound 0.005 µM", "value": 0.416}, {"measurement": "relative viability", "setting": "[7]; first compound 0.01581 µM", "value": 0.544}, {"measurement": "relative viability", "setting": "[7]; first compound 0.05 µM", "value": 0.453}, {"measurement": "relative viability", "setting": "[7]; first compound 0.1581 µM", "value": 0.341}, {"measurement": "relative viability", "setting": "[7]; first compound 0.5 µM", "value": 0.295}, {"measurement": "relative viability", "setting": "[8]; first compound 0.005 µM", "value": 0.487}, {"measurement": "relative viability", "setting": "[8]; first compound 0.01581 µM", "value": 0.213}, {"measurement": "relative viability", "setting": "[8]; first compound 0.05 µM", "value": 0.181}, {"measurement": "relative viability", "setting": "[8]; first compound 0.1581 µM", "value": 0.115}, {"measurement": "relative viability", "setting": "[8]; first compound 0.5 µM", "value": 0.106}, {"measurement": "relative viability", "setting": "[9]; first compound 0.005 µM", "value": 0.752}, {"measurement": "relative viability", "setting": "[9]; first compound 0.01581 µM", "value": 1.05}, {"measurement": "relative viability", "setting": "[9]; first compound 0.05 µM", "value": 0.544}, {"measurement": "relative viability", "setting": "[9]; first compound 0.1581 µM", "value": 0.315}, {"measurement": "relative viability", "setting": "[9]; first compound 0.5 µM", "value": 0.188}, {"measurement": "relative viability", "setting": "[10]; first compound 0.005 µM", "value": 0.869}, {"measurement": "relative viability", "setting": "[10]; first compound 0.01581 µM", "value": 0.904}, {"measurement": "relative viability", "setting": "[10]; first compound 0.05 µM", "value": 0.834}, {"measurement": "relative viability", "setting": "[10]; first compound 0.1581 µM", "value": 0.584}, {"measurement": "relative viability", "setting": "[10]; first compound 0.5 µM", "value": 0.549}, {"measurement": "relative viability", "setting": "[11]; first compound 0.005 µM", "value": 0.888}, {"measurement": "relative viability", "setting": "[11]; first compound 0.01581 µM", "value": 0.882}, {"measurement": "relative viability", "setting": "[11]; first compound 0.05 µM", "value": 0.686}, {"measurement": "relative viability", "setting": "[11]; first compound 0.1581 µM", "value": 0.393}]}
